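Cells were grown in 96-well plates and exposed to each compound for 48 hours at five concentrations; endpoints were interpolated linearly between bracketing concentrations, or set to the highest concentration if not reached. Abbreviation: GI50, concentration required for 50% inhibition of growth.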 Active and inactive are the calls of the source. Cut-off read from the data, not from the text of the source: active = GI50 up to about 1.1 µM and inactive = higher.
What was measured:
Experiment in all cases: NCI anticancer screen, dose series, 48 h
LOX IMVI = test system: LOX IMVI
DU-145 = test system: DU-145
U-251 = test system: U-251
SK-MEL-5 = test system: SK-MEL-5
HCT-116 = test system: HCT-116
RPMI-8226 = test system: RPMI-8226
MCF7 = test system: MCF7
A498 = test system: A498
OVCAR-5 = test system: OVCAR-5
HOP-92 = test system: HOP-92
Malme-3M = test system: Malme-3M
M14 = test system: M14
IGROV-1 = test system: IGROV-1
NCI-H226 = test system: NCI-H226
SF-295 = test system: SF-295
OVCAR-8 = test system: OVCAR-8
SK-OV-3 = test system: SK-OV-3
CCRF-CEM = test system: CCRF-CEM
HL-60 = test system: HL-60
SW-620 = test system: SW-620

Measured: GI50

COc1ccc2c(c1)nc1n2C(c2c(Cl)cccc2Cl)SC1 (stereo unspecified)
inactive: LOX IMVI 25.8 µM | DU-145 22.3 µM | U-251 21.4 µM | SK-MEL-5 5.02 µM | HCT-116 7.85 µM | RPMI-8226 > 23.5 µM | MCF7 5.68 µM | A498 46.5 µM | OVCAR-5 > 67.8 µM | HOP-92 > 71.4 µM | Malme-3M 3.01 µM | M14 12.4 µM | IGROV-1 18.1 µM | NCI-H226 > 21.8 µM | SF-295 5.71 µM | OVCAR-8 > 61 µM | SK-OV-3 > 51.9 µM

O=C(CCn1ccnc1[N+](=O)[O-])NCCCn1ccnc1[N+](=O)[O-]
inactive: CCRF-CEM > 100 µM | LOX IMVI > 100 µM | DU-145 > 100 µM | U-251 > 100 µM | HL-60 > 100 µM | SK-MEL-5 > 100 µM | HCT-116 > 100 µM | RPMI-8226 > 100 µM | MCF7 > 100 µM | A498 > 100 µM | OVCAR-5 > 100 µM | Malme-3M > 100 µM | M14 > 100 µM | SW-620 > 100 µM | IGROV-1 > 100 µM | NCI-H226 > 100 µM | SF-295 > 100 µM | OVCAR-8 > 100 µM | SK-OV-3 > 100 µM

CC(CO)(Nc1ccc([N+](=O)[O-])cc1[N+](=O)[O-])C(=O)O (stereo unspecified)
inactive: LOX IMVI 22.5 µM | DU-145 22.8 µM | U-251 22.9 µM | HL-60 17.6 µM | SK-MEL-5 20.5 µM | HCT-116 63.2 µM | RPMI-8226 29.3 µM | MCF7 17.5 µM | OVCAR-5 32.6 µM | Malme-3M 18.7 µM | M14 80.2 µM | SW-620 16.7 µM | IGROV-1 20 µM | NCI-H226 > 100 µM | SF-295 68.9 µM | OVCAR-8 34.8 µM

Cc1sc2c(c1C)/C(=N\O)c1cccn1-2
inactive: CCRF-CEM 3.6 µM | LOX IMVI 55.7 µM | DU-145 61 µM | U-251 26.7 µM | SK-MEL-5 46.1 µM | HCT-116 37.6 µM | RPMI-8226 37.8 µM | MCF7 39.1 µM | A498 24.2 µM | OVCAR-5 > 100 µM | Malme-3M 45.1 µM | M14 64 µM | SW-620 58.6 µM | IGROV-1 24.3 µM | NCI-H226 29.7 µM | SF-295 54.7 µM | OVCAR-8 45.8 µM | SK-OV-3 39.7 µM

O=C1CC2(CCNCC2)C(=O)N1N1CCCC1
inactive: CCRF-CEM > 100 µM | LOX IMVI > 100 µM | DU-145 > 100 µM | U-251 > 100 µM | HL-60 > 100 µM | SK-MEL-5 > 100 µM | HCT-116 > 100 µM | RPMI-8226 > 100 µM | MCF7 > 100 µM | OVCAR-5 > 100 µM | Malme-3M > 100 µM | M14 > 100 µM | SW-620 > 100 µM | IGROV-1 > 100 µM | NCI-H226 > 100 µM | SF-295 > 100 µM | OVCAR-8 > 100 µM | SK-OV-3 > 100 µM

CC(NC(=O)Cc1ccccc1)NC(=O)C(C)C(=O)Nc1ccccc1 (stereo unspecified)
inactive: DU-145 > 100 µM | U-251 43.3 µM | HL-60 > 10 µM | SK-MEL-5 > 100 µM | HCT-116 > 100 µM | RPMI-8226 > 100 µM | MCF7 > 100 µM | OVCAR-5 > 100 µM | HOP-92 44.2 µM | Malme-3M 16.1 µM | M14 > 100 µM | SW-620 > 100 µM | IGROV-1 61.5 µM | NCI-H226 23.3 µM | SF-295 > 100 µM | OVCAR-8 34.8 µM | SK-OV-3 51.6 µM

Fc1ccccc1-c1nn2c(C34CC5CC(CC(C5)C3)C4)nnc2s1
inactive: CCRF-CEM > 100 µM | LOX IMVI > 100 µM | DU-145 > 100 µM | U-251 > 100 µM | SK-MEL-5 > 100 µM | HCT-116 > 100 µM | RPMI-8226 > 100 µM | A498 > 100 µM | OVCAR-5 > 100 µM | HOP-92 > 100 µM | Malme-3M > 100 µM | M14 > 100 µM | SW-620 > 100 µM | IGROV-1 > 100 µM | NCI-H226 > 100 µM | SF-295 > 100 µM | OVCAR-8 > 100 µM | SK-OV-3 > 100 µM

CC1(C)O[C@H]([C@H](O)c2nnc3ccc(Cl)nn23)[C@@H]([C@H]2COC(C)(C)O2)O1
inactive: CCRF-CEM > 100 µM | LOX IMVI > 100 µM | DU-145 > 100 µM | U-251 > 100 µM | HL-60 > 100 µM | SK-MEL-5 > 100 µM | HCT-116 > 100 µM | RPMI-8226 > 100 µM | MCF7 > 100 µM | A498 > 100 µM | OVCAR-5 > 100 µM | Malme-3M > 100 µM | M14 > 100 µM | SW-620 > 100 µM | IGROV-1 > 100 µM | SF-295 > 100 µM | OVCAR-8 > 100 µM | SK-OV-3 > 100 µM

— ChEMBL document CHEMBL1201862, “PubChem BioAssay data set” (2004)
